Assay results reported in ChEMBL document CHEMBL1201862, “PubChem BioAssay data set” (2004).
Active and inactive are the calls of the source.

Assays:
Nonstructural protein 1 = Nonstructural protein 1 (Influenza A virus, UniProt Q194T2); format: functional, Influenza A virus (A/California/07/2009(H1N1))
[1] = target: T1, Rac GTPase-activating protein 1 (Homo sapiens, UniProt Q9H0H5); assay: MgcRacGAP GTPase-activating activity inhibitors, confirmation, biochemical, ADP Hunter fluorescence, primary and confirmatory (AID 624330); format: functional
T1 sequence (Q9H0H5 whole entry): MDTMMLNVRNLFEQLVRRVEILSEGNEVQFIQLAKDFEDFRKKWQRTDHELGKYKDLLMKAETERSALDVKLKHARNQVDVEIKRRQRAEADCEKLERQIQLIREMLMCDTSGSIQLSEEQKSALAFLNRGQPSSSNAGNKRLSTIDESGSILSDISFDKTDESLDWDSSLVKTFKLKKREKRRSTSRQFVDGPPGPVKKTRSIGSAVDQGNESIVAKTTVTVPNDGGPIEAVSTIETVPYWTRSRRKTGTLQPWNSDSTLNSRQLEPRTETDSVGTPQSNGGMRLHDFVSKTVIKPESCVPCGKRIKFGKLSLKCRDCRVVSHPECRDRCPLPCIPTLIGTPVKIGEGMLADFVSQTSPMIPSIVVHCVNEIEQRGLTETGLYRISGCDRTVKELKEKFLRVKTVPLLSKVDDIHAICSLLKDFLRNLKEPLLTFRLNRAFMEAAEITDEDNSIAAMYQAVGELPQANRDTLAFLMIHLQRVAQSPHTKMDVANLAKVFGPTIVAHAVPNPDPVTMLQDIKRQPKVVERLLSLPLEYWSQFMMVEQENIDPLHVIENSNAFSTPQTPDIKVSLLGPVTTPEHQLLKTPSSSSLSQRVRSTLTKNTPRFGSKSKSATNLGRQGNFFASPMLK

Caspase-6 = target: T2, Caspase-6 (Homo sapiens, UniProt P55212); assay: human caspase-6 inhibitors, dose response, biochemical, VEID-R110 fluorescence, cherry-pick (AID 720632)
T2 sequence (P55212 whole entry): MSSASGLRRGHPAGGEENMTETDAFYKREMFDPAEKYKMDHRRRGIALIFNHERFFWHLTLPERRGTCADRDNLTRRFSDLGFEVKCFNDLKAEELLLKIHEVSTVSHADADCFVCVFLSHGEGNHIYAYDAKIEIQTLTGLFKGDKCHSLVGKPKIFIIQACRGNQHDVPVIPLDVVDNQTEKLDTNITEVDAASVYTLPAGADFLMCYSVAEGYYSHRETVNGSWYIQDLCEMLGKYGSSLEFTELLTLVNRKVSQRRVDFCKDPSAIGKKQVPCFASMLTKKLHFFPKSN

[2] = target: T3, Small ubiquitin-related modifier 1 (Homo sapiens, UniProt P63165); assay: inhibitors of SUMO1 peptide binding, dose response, biochemical, fluorescence polarization, uHTS hits (AID 624382); format: functional; conditions: read-out: IC50_Mean
[3] = target: T3, Small ubiquitin-related modifier 1; assay: inhibitors of SUMO1 partner interactions, dose response, biochemical, FRET (AID 624383); format: functional; conditions: read-out: IC50_Mean
[4] = target: T4, Tyrosine-protein phosphatase non-receptor type 22 (Homo sapiens, UniProt Q9Y2R2); assay: inhibitors of LYP phosphatase, biochemical, fluorescence intensity, uHTS (AID 1779)
T4 sequence (Q9Y2R2 whole entry): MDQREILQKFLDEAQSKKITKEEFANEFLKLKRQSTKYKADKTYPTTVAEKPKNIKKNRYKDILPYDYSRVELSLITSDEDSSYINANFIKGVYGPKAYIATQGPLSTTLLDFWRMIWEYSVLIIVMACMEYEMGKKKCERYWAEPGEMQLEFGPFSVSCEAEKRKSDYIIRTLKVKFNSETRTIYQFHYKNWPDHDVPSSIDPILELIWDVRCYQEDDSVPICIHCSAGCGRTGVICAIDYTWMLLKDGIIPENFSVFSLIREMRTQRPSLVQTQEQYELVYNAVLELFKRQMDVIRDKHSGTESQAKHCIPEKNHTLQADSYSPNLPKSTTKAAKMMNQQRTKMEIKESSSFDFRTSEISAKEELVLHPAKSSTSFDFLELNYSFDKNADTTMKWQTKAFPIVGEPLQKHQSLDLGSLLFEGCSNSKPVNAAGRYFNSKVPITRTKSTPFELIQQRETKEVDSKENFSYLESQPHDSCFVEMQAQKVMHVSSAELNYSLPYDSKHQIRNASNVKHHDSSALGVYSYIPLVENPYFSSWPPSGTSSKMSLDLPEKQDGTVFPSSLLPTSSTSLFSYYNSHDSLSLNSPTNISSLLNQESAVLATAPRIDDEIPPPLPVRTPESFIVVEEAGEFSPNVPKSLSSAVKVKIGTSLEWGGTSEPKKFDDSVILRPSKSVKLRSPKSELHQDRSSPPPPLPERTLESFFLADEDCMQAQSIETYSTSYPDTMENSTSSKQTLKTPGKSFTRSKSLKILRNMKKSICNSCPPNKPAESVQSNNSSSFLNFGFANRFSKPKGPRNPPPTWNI

[5] = target: Eukaryotic translation initiation factor 4E (Mus musculus, UniProt P63073); assay: eIF4E–eIF4G protein interaction inhibitors, dose response, biochemical, TR-FRET (AID 855); format: functional;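 note: potency for disrupting eIF4E binding to eIF4GI seen as loss of FRET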
[6] = target: Induced myeloid leukemia cell differentiation protein Mcl-1 (Homo sapiens, UniProt Q07820); format: functional
[7] = target: T4, Tyrosine-protein phosphatase non-receptor type 22; format: functional
BJ = assay: cytotoxicity toward BJ-TERT fibroblasts, dose response, cell-based, RAS-independent, luminescence (AID 1933); format: functional; conditions: Homo sapiens
[8] = target: T5, Type-1 angiotensin II receptor (Homo sapiens, UniProt P30556); assay: AT1 receptor antagonists, dose response, selectivity assay for APJ receptor antagonist project, cell-based, uHTS hits (AID 463214); format: functional;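 note: antagonist potency against angiotensin II stimulated AT1 response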
T5 sequence (P30556 whole entry): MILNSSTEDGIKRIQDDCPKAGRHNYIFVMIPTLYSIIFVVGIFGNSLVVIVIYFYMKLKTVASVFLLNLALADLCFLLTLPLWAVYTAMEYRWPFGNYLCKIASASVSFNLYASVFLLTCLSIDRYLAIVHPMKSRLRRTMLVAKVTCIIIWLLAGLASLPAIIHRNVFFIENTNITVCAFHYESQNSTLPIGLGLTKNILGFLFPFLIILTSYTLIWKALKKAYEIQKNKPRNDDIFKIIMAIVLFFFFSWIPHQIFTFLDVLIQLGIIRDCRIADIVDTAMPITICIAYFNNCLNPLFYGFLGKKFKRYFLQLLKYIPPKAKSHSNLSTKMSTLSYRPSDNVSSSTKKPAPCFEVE

CHO = assay: cytotoxicity in TLR9-MyD88 CHO cells, dose response, cytotoxicity control for TLR9-MyD88 binding inhibitor project, cell-based, luminescence (AID 588339); format: functional, hamster; conditions: Cricetulus griseus;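 note: CHO cells stably coexpressing TLR9 and MyD88 fusions from primary screen; compound exposure lasted 48 hours before viability readout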
[9] = target: Kappa-type opioid receptor (Homo sapiens, UniProt P41145); format: functional
Beta-galactosidase = Beta-galactosidase (Escherichia coli, UniProt Q8VNN2); assay: PubChem AID 485352; format: functional
INS1 = assay: beta cell apoptosis inhibitors, cytokine rescue, dose response, luminescence, retest (AID 449756); format: functional, cell-based; conditions: Rattus norvegicus;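 note: cell death triggered by IL-1 beta plus TNF-alpha plus IFN-gamma mixture; protective hits raise ATP signal compared with cytokine alone wells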

T3 sequence (P63165 whole entry): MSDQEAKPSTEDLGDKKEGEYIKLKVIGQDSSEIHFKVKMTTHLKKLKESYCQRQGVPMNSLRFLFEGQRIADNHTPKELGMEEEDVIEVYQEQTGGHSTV
Nonstructural protein 1, sequence (Q194T2 whole entry): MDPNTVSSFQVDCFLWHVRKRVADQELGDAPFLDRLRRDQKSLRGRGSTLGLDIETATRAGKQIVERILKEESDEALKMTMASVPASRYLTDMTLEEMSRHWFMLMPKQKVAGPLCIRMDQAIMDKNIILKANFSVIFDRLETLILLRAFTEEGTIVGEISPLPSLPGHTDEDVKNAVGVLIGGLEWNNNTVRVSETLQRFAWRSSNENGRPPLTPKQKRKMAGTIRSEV
Eukaryotic translation initiation factor 4E, sequence (P63073 whole entry): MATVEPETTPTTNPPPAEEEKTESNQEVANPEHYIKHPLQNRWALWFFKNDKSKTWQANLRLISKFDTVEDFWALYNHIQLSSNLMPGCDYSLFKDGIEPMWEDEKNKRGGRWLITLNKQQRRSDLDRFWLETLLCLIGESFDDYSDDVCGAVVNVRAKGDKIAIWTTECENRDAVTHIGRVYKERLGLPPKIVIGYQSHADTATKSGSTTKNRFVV
Beta-galactosidase, sequence (Q8VNN2 whole entry): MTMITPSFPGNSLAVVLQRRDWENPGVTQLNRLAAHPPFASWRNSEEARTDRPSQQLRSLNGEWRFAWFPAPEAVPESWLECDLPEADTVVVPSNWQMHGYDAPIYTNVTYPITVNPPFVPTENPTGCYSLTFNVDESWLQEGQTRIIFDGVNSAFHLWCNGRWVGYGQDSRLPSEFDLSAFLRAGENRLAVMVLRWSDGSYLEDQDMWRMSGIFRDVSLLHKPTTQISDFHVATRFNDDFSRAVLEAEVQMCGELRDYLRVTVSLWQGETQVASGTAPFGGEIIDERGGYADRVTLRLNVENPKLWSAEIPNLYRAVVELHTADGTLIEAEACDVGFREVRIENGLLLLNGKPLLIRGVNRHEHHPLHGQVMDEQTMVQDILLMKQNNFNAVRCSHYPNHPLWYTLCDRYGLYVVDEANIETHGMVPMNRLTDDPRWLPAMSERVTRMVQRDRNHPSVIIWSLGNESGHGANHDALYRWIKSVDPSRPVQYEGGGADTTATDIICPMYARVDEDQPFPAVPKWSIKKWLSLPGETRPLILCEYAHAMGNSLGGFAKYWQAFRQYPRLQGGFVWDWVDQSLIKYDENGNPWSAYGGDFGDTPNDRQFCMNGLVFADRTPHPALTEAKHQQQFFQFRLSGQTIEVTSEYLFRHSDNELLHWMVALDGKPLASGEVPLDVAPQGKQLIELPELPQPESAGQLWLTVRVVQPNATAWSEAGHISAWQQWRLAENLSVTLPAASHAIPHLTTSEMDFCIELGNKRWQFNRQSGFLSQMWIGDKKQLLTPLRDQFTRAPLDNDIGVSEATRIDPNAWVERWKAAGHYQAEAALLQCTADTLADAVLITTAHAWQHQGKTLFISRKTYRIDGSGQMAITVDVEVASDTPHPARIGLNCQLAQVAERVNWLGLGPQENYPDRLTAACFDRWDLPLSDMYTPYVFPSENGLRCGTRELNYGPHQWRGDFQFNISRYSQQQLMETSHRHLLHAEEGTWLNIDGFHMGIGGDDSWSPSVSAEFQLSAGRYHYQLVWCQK
Induced myeloid leukemia cell differentiation protein Mcl-1, sequence (Q07820 whole entry): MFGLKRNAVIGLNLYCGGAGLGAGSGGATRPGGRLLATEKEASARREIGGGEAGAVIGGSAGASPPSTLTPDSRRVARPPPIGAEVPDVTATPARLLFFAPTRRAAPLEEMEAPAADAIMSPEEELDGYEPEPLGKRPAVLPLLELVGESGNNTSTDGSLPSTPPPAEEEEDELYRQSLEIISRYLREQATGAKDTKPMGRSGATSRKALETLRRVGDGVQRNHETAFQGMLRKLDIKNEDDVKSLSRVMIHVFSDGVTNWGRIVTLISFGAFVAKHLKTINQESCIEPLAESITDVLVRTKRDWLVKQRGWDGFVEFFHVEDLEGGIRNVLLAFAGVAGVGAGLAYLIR
Kappa-type opioid receptor, sequence (P41145 whole entry): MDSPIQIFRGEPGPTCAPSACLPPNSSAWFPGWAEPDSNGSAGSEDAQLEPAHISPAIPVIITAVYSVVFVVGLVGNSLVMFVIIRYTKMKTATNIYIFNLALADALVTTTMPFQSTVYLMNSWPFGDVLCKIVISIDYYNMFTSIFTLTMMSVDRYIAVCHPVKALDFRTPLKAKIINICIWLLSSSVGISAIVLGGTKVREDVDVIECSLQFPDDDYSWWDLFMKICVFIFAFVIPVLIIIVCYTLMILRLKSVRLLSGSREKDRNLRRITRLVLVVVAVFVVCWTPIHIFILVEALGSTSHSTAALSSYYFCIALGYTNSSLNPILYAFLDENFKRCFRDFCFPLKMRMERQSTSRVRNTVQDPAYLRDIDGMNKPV

## O=S(=O)(O)c1cc(Cl)cc(N=Nc2ccc(O)cc2O)c1O
Nonstructural protein 1
  IC50: 8.3 µM (active)
[1]
  IC50: 83.7 µM (active)
Caspase-6
  AC50: 2.44 µM (active)

## O=C(O)c1cccc(-n2cccc2/C=C2/NC(=O)N(c3ccc(Cl)cc3)C2=O)c1
[2]
  IC50: 21.3 µM (inactive)
[3]
  IC50: 17.4 µM (active)
[4]
  IC50: 5.47 µM (active)
[5]
  IC50: 4.43 µM (active)
[6]
  IC50: 2.69 µM (active)
[7]
  IC50: 2.44 µM (active)

## C=C1C(=O)O[C@@H]2C[C@@H](C)[C@@H]3C=CC(=O)[C@@]3(C)[C@@H](OC(=O)CC(=O)O[C@H]3[C@@H]4C(=C)C(=O)O[C@@H]4C[C@@H](C)[C@@H]4C=CC(=O)[C@]43C)[C@H]12
BJ
  EC50: 0.354 µM (inconclusive)
[8]
  IC50: 6.05 µM (active)
CHO
  IC50: 0.147 µM (active)
[9]
  IC50: 9.14 µM
Beta-galactosidase
  EC50: > 40 µM (inactive)
INS1
  AC50: 0.312 µM (active)
